PubChem BioAssay AID248 (DTP/NCI, 2004)
Values joined by “and” are separate entries in the source; they are usually repeats but may differ in a detail not shown here. Equal values may be shown once. Toxic doses and inconclusive results are not listed. Rule as the data show it: active = T/C of 150% or more; inactive = T/C below 125%.

Tested on: L1210 leukemia ip in BDF1 mice, survival T/C
Experiment: NCI In Vivo Anticancer Drug Screen. Data for tumor model L1210 Leukemia (intraperitoneal) in B6D2F1 (BDF1) mice
Conditions: higher = longer survival
How it was run: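 Tumor was transplanted into mice, which were then dosed with test compound or vehicle alone. Survival was recorded for each group, and the treated figure was expressed relative to the control figure.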

[1] = endpoint: mean survival time, dose: 100.0 mg/kg/injection, schedule: Q01DX001 (ip), vehicle: saline with Tween-80
[2] = endpoint: mean survival time, dose: 200.0 mg/kg/injection, schedule: Q01DX001 (ip), vehicle: saline with Tween-80
[3] = endpoint: mean survival time, dose: 400.0 mg/kg/injection, schedule: Q01DX001 (ip), vehicle: saline with Tween-80
[4] = endpoint: mean survival time, dose: 100.0 mg/kg/injection, schedule: Q01DX009 (ip), vehicle: Klucel (hydroxypropylcellulose) (HPC)
[5] = endpoint: mean survival time, dose: 200.0 mg/kg/injection, schedule: Q01DX009 (ip), vehicle: Klucel (hydroxypropylcellulose) (HPC)
[6] = endpoint: mean survival time, dose: 400.0 mg/kg/injection, schedule: Q01DX009 (ip), vehicle: Klucel (hydroxypropylcellulose) (HPC)
[7] = endpoint: mean survival time, dose: 200.0 mg/kg/injection, schedule: Q01DX009 (ip), vehicle: saline with Tween-80
[8] = endpoint: mean survival time, dose: 100.0 mg/kg/injection, schedule: Q04DX003 (ip), vehicle: Klucel (hydroxypropylcellulose) (HPC)
[9] = endpoint: mean survival time, dose: 200.0 mg/kg/injection, schedule: Q04DX003 (ip), vehicle: Klucel (hydroxypropylcellulose) (HPC)
[10] = endpoint: mean survival time, dose: 400.0 mg/kg/injection, schedule: Q04DX003 (ip), vehicle: Klucel (hydroxypropylcellulose) (HPC)

Measured: T/C

COC(=O)c1ccc(N=Nc2ncc(CC(NC(C)=O)C(=O)OC)[nH]2)cc1 (stereo not given)
inactive: [1] 93 % of control | [2] 96 % of control | [3] 100 % of control

CCC(C)N(C)/N=N/c1nc[nH]c1C(N)=O (stereo not given)
active: endpoint: mean survival time, dose: 38.0 mg/kg/injection, schedule: Q01DX009 (ip), vehicle: Klucel (hydroxypropylcellulose) (HPC) 159 % of control | endpoint: mean survival time, dose: 50.0 mg/kg/injection, schedule: Q01DX009 (ip), vehicle: water 154 % of control | endpoint: mean survival time, dose: 58.0 mg/kg/injection, schedule: Q01DX009 (ip), vehicle: Klucel (hydroxypropylcellulose) (HPC) 159 % of control | endpoint: mean survival time, dose: 88.0 mg/kg/injection, schedule: Q01DX009 (ip), vehicle: Klucel (hydroxypropylcellulose) (HPC) 150 % of control and 186 % of control | endpoint: mean survival time, dose: 300.0 mg/kg/injection, schedule: Q04DX003 (ip), vehicle: saline with Tween-80 157 % of control | endpoint: median survival time, dose: 50.0 mg/kg/injection, schedule: Q01DX009 (ip), vehicle: Klucel (hydroxypropylcellulose) (HPC) 155 % of control | endpoint: median survival time, dose: 75.0 mg/kg/injection, schedule: Q01DX009 (ip), vehicle: Klucel (hydroxypropylcellulose) (HPC) 155 % of control | endpoint: median survival time, dose: 100.0 mg/kg/injection, schedule: Q01DX009 (ip), vehicle: Klucel (hydroxypropylcellulose) (HPC) 155 % of control
inactive: endpoint: mean survival time, dose: 11.0 mg/kg/injection, schedule: Q01DX009 (ip), vehicle: Klucel (hydroxypropylcellulose) (HPC) 110 % of control | endpoint: mean survival time, dose: 16.7 mg/kg/injection, schedule: Q01DX009 (ip), vehicle: Klucel (hydroxypropylcellulose) (HPC) 123 % of control | endpoint: mean survival time, dose: 16.8 mg/kg/injection, schedule: Q01DX009 (ip), vehicle: Klucel (hydroxypropylcellulose) (HPC) 124 % of control | endpoint: mean survival time, dose: 25.0 mg/kg/injection, schedule: Q01DX009 (ip), vehicle: Klucel (hydroxypropylcellulose) (HPC) 124 % of control | endpoint: mean survival time, dose: 25.0 mg/kg/injection, schedule: Q04DX003 (ip), vehicle: water 121 % of control | endpoint: mean survival time, dose: 50.0 mg/kg/injection, schedule: Q01DX001 (ip), vehicle: water 101 % of control | endpoint: mean survival time, dose: 50.0 mg/kg/injection, schedule: Q04DX003 (ip), vehicle: water 106 % of control | endpoint: mean survival time, dose: 100.0 mg/kg/injection, schedule: Q01DX001 (ip), vehicle: water 110 % of control | endpoint: mean survival time, dose: 100.0 mg/kg/injection, schedule: Q01DX009 (ip), vehicle: water 120 % of control | endpoint: mean survival time, dose: 100.0 mg/kg/injection, schedule: Q04DX003 (ip), vehicle: water 110 % of control | endpoint: mean survival time, dose: 133.0 mg/kg/injection, schedule: Q01DX009 (ip), vehicle: Klucel (hydroxypropylcellulose) (HPC) 106 % of control | endpoint: mean survival time, dose: 133.0 mg/kg/injection, schedule: Q04DX003 (ip), vehicle: saline with Tween-80 116 % of control and 124 % of control | endpoint: mean survival time, dose: 200.0 mg/kg/injection, schedule: Q01DX001 (ip), vehicle: water 109 % of control | endpoint: mean survival time, dose: 200.0 mg/kg/injection, schedule: Q04DX003 (ip), vehicle: saline with Tween-80 121 % of control | endpoint: mean survival time, dose: 200.0 mg/kg/injection, schedule: Q04DX003 (ip), vehicle: water 106 % of control | endpoint: mean survival time, dose: 400.0 mg/kg/injection, schedule: Q04DX003 (ip), vehicle: water 94 % of control | endpoint: median survival time, dose: 25.0 mg/kg/injection, schedule: Q01DX009 (ip), vehicle: Klucel (hydroxypropylcellulose) (HPC) 115 % of control | endpoint: median survival time, dose: 100.0 mg/kg/injection, schedule: Q04DX003 (ip), vehicle: Klucel (hydroxypropylcellulose) (HPC) 110 % of control | endpoint: median survival time, dose: 200.0 mg/kg/injection, schedule: Q04DX003 (ip), vehicle: Klucel (hydroxypropylcellulose) (HPC) 120 % of control | endpoint: median survival time, dose: 300.0 mg/kg/injection, schedule: Q04DX003 (ip), vehicle: Klucel (hydroxypropylcellulose) (HPC) 120 % of control | endpoint: median survival time, dose: 400.0 mg/kg/injection, schedule: Q04DX003 (ip), vehicle: Klucel (hydroxypropylcellulose) (HPC) 100 % of control

ClC1=C(Cl)C(Cl)(C2(Cl)C(Cl)=C(Cl)C(Cl)=C2Cl)C(Cl)=C1Cl
inactive: [4] 93 % of control | [5] 102 % of control | [6] 95 % of control

CCOC(=O)c1ccc(NC(=O)Nc2cc(OC)ccc2OC)cc1
inactive: endpoint: mean survival time, dose: 25.0 mg/kg/injection, schedule: Q01DX009 (ip), vehicle: saline with Tween-80 100 % of control and 91 % of control | endpoint: mean survival time, dose: 50.0 mg/kg/injection, schedule: Q01DX009 (ip), vehicle: saline with Tween-80 95 % of control | [1] 98 % of control | endpoint: mean survival time, dose: 100.0 mg/kg/injection, schedule: Q04DX002 (ip), vehicle: saline with Tween-80 96 % of control | endpoint: mean survival time, dose: 100.0 mg/kg/injection, schedule: Q04DX003 (ip), vehicle: saline with Tween-80 96 % of control | [2] 95 % of control | [7] 91 % of control | endpoint: mean survival time, dose: 200.0 mg/kg/injection, schedule: Q04DX002 (ip), vehicle: saline with Tween-80 100 % of control | [3] 91 % of control | endpoint: mean survival time, dose: 400.0 mg/kg/injection, schedule: Q04DX002 (ip), vehicle: saline with Tween-80 94 % of control

COc1n[n+]([O-])c(Cl)c(/C=C\c2ccccc2)c1[N+](=O)[O-]
inactive: endpoint: mean survival time, dose: 75.0 mg/kg/injection, schedule: Q04DX002 (ip), vehicle: Klucel (hydroxypropylcellulose) (HPC) 93 % of control | endpoint: mean survival time, dose: 150.0 mg/kg/injection, schedule: Q04DX002 (ip), vehicle: Klucel (hydroxypropylcellulose) (HPC) 101 % of control | endpoint: mean survival time, dose: 300.0 mg/kg/injection, schedule: Q04DX002 (ip), vehicle: Klucel (hydroxypropylcellulose) (HPC) 101 % of control

C=C1C=C(C)N(C(=O)c2ccccc2Br)CCN1C(=O)c1ccccc1Br
inactive: [8] 96 % of control | [9] 105 % of control | [10] 100 % of control

Nc1cccc(-c2csc(N)n2)c1
inactive: endpoint: mean survival time, dose: 100.0 mg/kg/injection, schedule: Q01DX001 (ip), vehicle: carboxymethylcellulose (CMC) 100 % of control | endpoint: mean survival time, dose: 200.0 mg/kg/injection, schedule: Q01DX001 (ip), vehicle: carboxymethylcellulose (CMC) 100 % of control

CS(=O)CCCC(=O)O (stereo not given)
inactive: [1] 102 % of control | [2] 94 % of control | [3] 97 % of control

CCOC(=O)Nc1cc(Cl)c2n[nH]nc2n1
inactive: endpoint: mean survival time, dose: 25.0 mg/kg/injection, schedule: Q01DX005 (ip), vehicle: saline 105 % of control | endpoint: mean survival time, dose: 50.0 mg/kg/injection, schedule: Q01DX005 (ip), vehicle: saline 113 % of control | endpoint: mean survival time, dose: 100.0 mg/kg/injection, schedule: Q01DX005 (ip), vehicle: saline 110 % of control

CCCCOC(=O)c1ccc(OC(=O)NC)cc1
inactive: endpoint: mean survival time, dose: 100.0 mg/kg/injection, schedule: Q01DX009 (ip), vehicle: saline with Tween-80 107 % of control | [7] 101 % of control | endpoint: mean survival time, dose: 400.0 mg/kg/injection, schedule: Q01DX009 (ip), vehicle: saline with Tween-80 112 % of control

O=C(Nc1ccc([N+](=O)[O-])cc1)OCC#CC#CCOC(=O)Nc1ccc([N+](=O)[O-])cc1
inactive: endpoint: mean survival time, dose: 50.0 mg/kg/injection, schedule: Q01DX009 (ip), vehicle: Klucel (hydroxypropylcellulose) (HPC) 104 % of control | [4] 100 % of control | [5] 86 % of control

COc1ccc(/C=C/c2nc3ccccc3nc2/C=C/c2ccc(OC)c(OC)c2)cc1OC
inactive: [4] 95 % of control | [8] 88 % of control | [5] 86 % of control | [9] 91 % of control | [10] 97 % of control

O=C(Nc1ccc(CCO)cc1)Nc1cccc(Cl)c1Cl
inactive: [4] 91 % of control | [5] 91 % of control | [6] 100 % of control

[CH3][Sn]([CH3])([CH3])[c]1ccc(-c2ccccc2)cc1
inactive: endpoint: mean survival time, dose: 25.0 mg/kg/injection, schedule: Q04DX002 (ip), vehicle: Klucel (hydroxypropylcellulose) (HPC) 92 % of control | endpoint: mean survival time, dose: 50.0 mg/kg/injection, schedule: Q04DX002 (ip), vehicle: Klucel (hydroxypropylcellulose) (HPC) 95 % of control | endpoint: mean survival time, dose: 100.0 mg/kg/injection, schedule: Q04DX002 (ip), vehicle: Klucel (hydroxypropylcellulose) (HPC) 100 % of control

Clc1ccnc2c1ccc1c(Cl)ccnc12
inactive: endpoint: mean survival time, dose: 50.0 mg/kg/injection, schedule: Q01DX001 (ip), vehicle: carboxymethylcellulose (CMC) 88 % of control

CC(C)CC(C)c1c(N)nc(N)[nH]c1=O (stereo not given)
inactive: endpoint: mean survival time, dose: 100.0 mg/kg/injection, schedule: Q01DX001 (ip), vehicle: Klucel (hydroxypropylcellulose) (HPC) 97 % of control | endpoint: mean survival time, dose: 200.0 mg/kg/injection, schedule: Q01DX001 (ip), vehicle: Klucel (hydroxypropylcellulose) (HPC) 103 % of control | endpoint: mean survival time, dose: 400.0 mg/kg/injection, schedule: Q01DX001 (ip), vehicle: Klucel (hydroxypropylcellulose) (HPC) 109 % of control
